The record followed here is patent US7833991B2, “Amine compound and use thereof” (Kureha Corporation, priority 2002, dated 2010).

Like-named read-outs stand apart in the source and are kept apart here.

The subject of data set [1] is HIV-1IIIB infected MT-4 cells. Put plainly: Antiviral activity in HIV-1IIIB infected MT-4 cells, MTT method (Test Examples 1 and 5). The class given is cell-based. Here is the method: Immediately after infection, HIV-1IIIB infected MT-4 cells (3.0×10^4/well, MOI (Multiplicity of infection): 0.01) were added to a 96-well microtiter plate together with the test compounds having different concentrations. The cells were cultured in a carbon dioxide incubator at 37° C. for 5 days, and the number of living cells was measured in accordance with the MTT (tetrazolium) method (Pawels, et al., Journal of Virology Method, 20, 309-321 ([…])). The antiviral activity is represented by the concentration required for inhibition of cell disorder due to HIV by 50% (EC50: 50% Effective Concentration) (μM), and the results are shown in Table 2.
(§1) Compounds of the present invention having various substituted and unsubstituted heterocyclic rings for the substituent A2 of formula (1) were tested for antiviral (anti-HIV) activity as in Test Example 1 and for CXCR4 activity as in Test Example 2. The compounds, various substituents of the compounds, antiviral activity represented by the concentration required for inhibition of all disorder due to HIV injection by 50% (EC50: 50% Effective Concentration, μM), and CXCR4 activity calculated as a rate of inhibition of the binding between radioactive ligands and CXCR4 receptors by a test material (a binding-inhibition % at 0.1 μM) are shown in Table 5: […]
(Tetrazolium assays rely on reduction of a dye to a coloured formazan, in cell work by metabolically active cells.)

Another data set addresses T1, CXCR4 (Homo sapiens, UniProt P61073).
T1 construct: endogenous in cells; host or cells: MT-4 cells
The experiment in a line: Inhibition of 125I-SDF-1α binding to receptors CXCR4 on MT-4 cells (Test Examples 2 and 5). Particulars: binding-inhibition % at 0.1 μM. Here is the method:
MT-4 cells (5×10^6/0.2 ml/well) were cultured on a 24-well microtiter plate. After the cells were incubated for 24 hours at 37° C. in a carbon dioxide gas incubator, a culture medium was replaced with a buffer solution (0.1% BSA-containing RPMI-1640). Together with a ligand ^125I-SDF-1α, (specific activity: 2,200 Ci/mmol; available from Daiichi Pure Chemicals Co., Ltd. (Tokyo)), test materials with various concentrations were subjected to a binding reaction for 2 hours under ice-cooling. […] Then, a rate of inhibition of the binding between radio-active ligands and receptors CXCR4 by a test material was calculated (a binding-inhibition % at 0.1 μM).
as §1

The test system of the next data set is ICR mice. The experiment in a line: Acute toxicity in mice, single administration via tail vein (Test Example 3). The class given is in vivo. The conditions noted are these: ICR mice (male), 2.5 mg/kg once. The protocol:
The aforementioned compound was examined for acute toxicity. Specifically, 7-week-old ICR mice (male) were divided into several groups (4 or 5 mice in each group), and the mice were bred for 1 week for habituation. Subsequently, each of the compounds of Examples was dissolved in distilled water or physiological saline, and the solution was administered to the mice via tail vein (dose: 2.5 mg/kg) once. Then, dead mice were counted.

[2] abbreviates: Human immunodeficiency virus 1, MT4, 120 h, concentration required for inhibition of cell disorder due to HIV by 50%, MT-4 cells, MOI 0.01, 5 days, MTT method, read-out: EC50.
Setting [3] is: Human immunodeficiency virus 1, MT4, as in Test Example 1, Table 5, read-out: HIV Activity EC50.
Setting [4] is: as in Test Example 2, Table 5, read-out: CXCR4 Activity % at 0.1 μM.
[5] abbreviates: 125I-SDF-1α, MT-4 cells, 2 hours under ice-cooling, read-out: Inhibition rate (%).

T1 sequence (P61073 whole entry): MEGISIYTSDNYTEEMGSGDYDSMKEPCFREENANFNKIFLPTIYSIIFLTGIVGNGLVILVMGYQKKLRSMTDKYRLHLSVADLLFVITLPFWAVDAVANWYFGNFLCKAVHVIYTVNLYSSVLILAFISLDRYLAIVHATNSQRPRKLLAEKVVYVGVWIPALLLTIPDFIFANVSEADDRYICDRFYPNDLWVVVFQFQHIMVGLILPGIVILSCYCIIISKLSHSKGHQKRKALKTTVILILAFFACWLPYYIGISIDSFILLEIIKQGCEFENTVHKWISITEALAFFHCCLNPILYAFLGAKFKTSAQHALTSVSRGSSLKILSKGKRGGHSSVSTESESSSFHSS

In the case of `CCCN(CCC)Cc1ccc(NC(=O)c2ccc(CN(Cc3ncc[nH]3)Cc3nc4ccccc4[nH]3)cc2)cc1` [Compound No. 61, N-(4-dipropylaminomethylphenyl)-4-{[(1H-imidazol-2-ylmethyl)-(1H-benzimidazol-2-ylmethyl)-amino]-methyl}-benzamide], the half-maximal effective concentration (EC50) in data set [1] (setting [2]) and in data set [1] (setting [3]) was 2 nM throughout. Moreover, the inhibition at 0.1 µM on CXCR4 (setting [4]) and at CXCR4 (setting [5]) was 100% in each case. For the same molecule, the Dead mice/test mice in the data set on ICR mice was 0/5.
In the case of `CCCN(CCC)CCCCNCc1ccc(CN(Cc2ccc(C)cn2)Cc2ncc[nH]2)cc1` [Compound No. 75, N-(4-{[(1H-imidazol-2-ylmethyl)-(5-methylpyridine-2-ylmethyl)-amino]-methyl}-benzyl)-N′,N′-dipropylbutane-1,4-diamine], the EC50 (in general, the concentration giving half of the maximal effect) in data set [1] (setting [2]) worked out at 2 nM. The inhibition at 0.1 µM at CXCR4 (setting [5]) came out at 100%. Further, in the data set on ICR mice, the Dead mice/test mice is on record as 0/5.
In the same order, the values of `CN(CCCCNS(=O)(=O)c1ccc(CN(Cc2ncc[nH]2)Cc2nccn2C)cc1)C1CCCCC1` [Compound No. 109, N-[4-(cyclohexyl-methyl-amino)-butyl]-4-{[(1H-imidazol-2-ylmethyl)-(1-methyl-1H-imidazol-2-ylmethyl)-amino]-methyl}-benzenesulfonamide] are 2 nM, 100% and 0/5.
In the same order, the values of `CC(C)CN(CCCCNC(=O)c1ccc(CN(Cc2ncc[nH]2)Cc2ncc[nH]2)cc1)CC(C)C` [Compound No. 2, 4-{[bis(1H-imidazol-2-ylmethyl)-amino]-methyl}-N-(4-diisobutylamino-butyl)-benzamide] are 3 nM, 100% and 0/5.
For `O=C(NCCCCNCc1ccccc1OC(F)(F)F)c1ccc(CN(Cc2ncc[nH]2)Cc2ncc[nH]2)cc1` [Compound No. 12, 4-{[bis(1H-imidazol-2-ylmethyl)-amino]-methyl}-N-[4-(2-trifluoromethoxy)-benzylamino-butyl]-benzamide], in that order: 49 nM, 95% and 0/5.
For `CCCN(CCC)CCCCNCc1ccc(CN(Cc2ncc[nH]2)Cc2ncc[nH]2)cc1` [Compound No. 25, N-(4-{[bis(1H-imidazol-2-ylmethyl)-amino]-methyl}-benzyl)-N′,N′-dipropylbutane-1,4-diamine], in data set [1] (setting [2]), the concentration giving a half-maximal response (EC50) is 2 nM. Also, the inhibition at 0.1 µM on CXCR4 (setting [5]) is 100%. Also, the Dead mice/test mice in the data set with ICR mice is 0/5.
Consider `CCCN(CCC)Cc1ccc(NC(=O)c2ccc(CN(Cc3ncc[nH]3)Cc3nccn3C)cc2)cc1` [Compound No. 49, N-(4-dipropylaminomethylphenyl)-4-{[(1H-imidazol-2-ylmethyl)-(1-methyl-1H-imidazol-2-ylmethyl)-amino]-methyl}-benzamide], for which the EC50 in data set [1] (setting [2]) and in data set [1] (setting [3]) was 2 nM in each case. The inhibition at 0.1 µM on CXCR4 (setting [4]) and on CXCR4 (setting [5]) was 100% in each case. Besides, the Dead mice/test mice in the data set on ICR mice is reported as 0/5.
For `O=C(NCCCCNCc1ccccc1C(F)(F)F)c1ccc(CN(Cc2ncc[nH]2)Cc2ncc[nH]2)cc1` [Compound No. 11, 4-{[bis(1H-imidazol-2-ylmethyl)-amino]-methyl}-N-[4-(2-trifluoromethyl)-benzylamino-butyl]-benzamide], the EC50 in data set [1] (setting [2]) was determined as 23 nM. The inhibition at 0.1 µM on CXCR4 (setting [5]) came out at 95%. For the same molecule, the Dead mice/test mice in the data set with ICR mice is given as 0/5.
For `CCCN(CCC)Cc1ccc(NC(=O)c2ccc(CN(Cc3ncc[nH]3)Cc3ncc[nH]3)cc2)cc1` [Compound No. 19, 4-{[bis(1H-imidazol-2-ylmethyl)-amino]-methyl}-N-(4-dipropylaminomethylphenyl)-benzamide], the EC50 in data set [1] (setting [2]) turned out to be 2 nM. At CXCR4 (setting [5]), the inhibition at 0.1 µM is 100%. Also, in the data set with ICR mice, the Dead mice/test mice is reported as 0/5.
For `NCCCCNC(=O)c1ccc(CN(Cc2ncc[nH]2)Cc2ncc[nH]2)cc1` [Compound No. 3, 4-{[bis(1H-imidazol-2-ylmethyl)-amino]-methyl}-N-(4-aminobutyl)-benzamide], in that order: 3 nM, 100% and 0/5.
For `CCCN(CCC)CCCCNC(=O)c1ccc(CN(Cc2ncc[nH]2)Cc2ncc[nH]2)cc1` [Compound No. 1, 4-{[bis(1H-imidazol-2-ylmethyl)-amino]-methyl}-N-(4-dipropylamino-butyl)-benzamide], in that order: 4 nM, 100% and 0/5.
In the same order, the values of `CCCN(CCC)CCCCN(C)Cc1ccc(CN(Cc2ncc[nH]2)Cc2nccn2C)cc1` [Compound No. 98, N-(4-{[(1H-imidazol-2-ylmethyl)-(1-methyl-1H-imidazol-2-ylmethyl)-amino]-methyl}-benzyl)-N-methyl-N′,N′-dipropylbutane-1,4-diamine] are 3 nM, 100% and 0/5.
`CCCN(CCC)CCCCN(C)Cc1ccc(CN(Cc2ncc[nH]2)Cc2nnc[nH]2)cc1` [Compound No. 116, N-(4-{[(imidazol-2-ylmethyl)-([1,2,4]-triazol-3-ylmethyl)-amino]-methyl}-benzyl)-N-methyl-N′,N′-dipropylbutane-1,4-diamine]: in data set [1] (setting [2]), the EC50 worked out at 2 nM. Besides, on CXCR4 (setting [5]), the inhibition at 0.1 µM turned out to be 100%. The Dead mice/test mice in the data set with ICR mice is reported as 0/5.
Regarding `CCCN(CCC)Cc1ccc(NC(=O)c2ccc(CN(Cc3ccc4cccc(O)c4n3)Cc3ncc[nH]3)cc2)cc1` [Compound No. 72, N-(4-dipropylaminomethylphenyl)-4-{[(8-hydroxyquinolin-2-ylmethyl)-(1H-imidazol-2-ylmethyl)-amino]-methyl}-benzamide], in data set [1] (setting [3]), the 50% effective concentration (EC50) came to 4 nM. On CXCR4 (setting [4]), the inhibition at 0.1 µM amounted to 100%.
